Reference: article PMC8201324, “Pyrazoles and Pyrazolines as Anti-Inflammatory Agents” (Molecules, 2021)
Marks after values point to notes of the source that are not given here.

How the values were obtained:
[1] = ABTS+ decolorization assay for antioxidant activity; type: biochemical
From the text: Pyrazolines 2d and 2e which are the most lipophilic compounds, showing antioxidant activity using the ABTS radical cation (ABTS^•+) generated through potassium persulfate by oxidation with no participation of an intermediary radical. This reduction is completed by adding electron-donating antioxidants. It seems that lipophilicity influences the activity, since both present high lipophilicity values.
A stock solution (1% DMSO in the appropriate buffer with the tested compound diluted under sonication) was prepared for the in vitro assays from which several dilutions were made with the appropriate buffer. The in vitro experiments were performed at least in triplicate, and the standard deviation of absorbance was less than 10% of the mean.
The ABTS radical cation (ABTS^+•) was generated by mixing ABTS stock solution in water (7 mM) with potassium persulfate (2.45 mM) and left in the dark at room temperature for 12–16 h before use. The results are recorded immediately after the mixing solutions at 734 nm. The results were compared to the appropriate standard inhibitor Trolox (Table 4).

[2] = system: carrageenin-induced rat paw edema; assay: Inhibition of the carrageenin-induced rat paw edema; type: in vivo, Fisher 344 rats; conditions: for CPE % (reduction in the rat paw edema induced by carrageenin): 0.0057 mmol/Kg body weight, intraperitoneally, 3.5 h after carrageenin; for anti-inflammatory activity in carrageenin-induced rat paw edema (in words): intraperitoneal administration
From the text: The carrageenin-induced rat paw edema assay was used, as a model of acute inflammation. Inflammation induced by carrageenan is acute, non-immune, well-researched, and highly reproducible, and is described as a biphasic event. Cardinal signs of inflammation—edema, hyperalgesia, and erythema, are developed immediately following subcutaneous injection, resulting from the action of pro-inflammatory agents: bradykinin, histamine, tachykinins, complement reactive oxygen and nitrogen species. It is known that NSAIDs act during the second phase of prostaglandin release, presenting weak activity in the first phase of histamine and serotonin release.
The animals (Fisher 344 rats), were housed under standard conditions, and received a diet of commercial food pellets and water ad libitum during the maintenance, but were entirely fasted during the experiment period. Both sexes were used, while pregnant females were excluded. Each group was composed of 6–15 animals. Our studies were in accordance with recognized guidelines on animal experimentation (guidelines for the care and use of laboratory animals published by the Greek Government 160/1991, based on EU regulations 86/609). Rats were kept in the Centre of the School of Veterinary Medicine (EL54 BIO42), Aristotle University of Thessaloniki, which is registered by the official state veterinary authorities (presidential degree 56/2013, in harmony with the European Directive 2010/63/EEC). The experimental protocols were approved by the Animal Ethics Committee of the Prefecture of Central Macedonia.
Carrageenin in water as an intradermal injection of 0.1 mL 2% was used for the induction of the edema in the right hind paw of the rats, according to the previously reported method. Animals were divided in five-membered groups and the tested compounds were suspended in water (0.0057 mmol/kg body weight), with a few drops of Tween 80, ground in a mortar before administered intraperitoneally simultaneously. The rats were euthanized 3.5 h after carrageenin injection. Comparison of the change in paw weight with that in control animals (treated with water) was expressed as a percent inhibition of the oedema CPE% values using indomethacin (IMA) as a reference compound. Values CPE% are the mean from two different experiments with a standard error of the mean less than 10% (Table 5). Student’s T test was applied.

[3] = system: acetic acid-induced writhing; assay: Anti-nociception writhing test (acetic acid); type: in vivo, Fisher 344 rats; conditions: 0.0057 mmol/kg body weight i.p., 0.6% acetic acid after 30 min
From the text: The acetic acid-induced writhing test is a quick, simple and reproducible method, despite the fact that it lacks specialization. […] The animals (Fisher 344 rats), were housed under standard conditions, and received a diet of commercial food pellets and water ad libitum during the maintenance, but were entirely fasted during the experiment period. Both sexes were used, while pregnant females were excluded. Each group was composed of 6–15 animals. Our studies were in accordance with recognized guidelines on animal experimentation (guidelines for the care and use of laboratory animals published by the Greek Government 160/1991, based on EU regulations 86/609). Rats were kept in the Centre of the School of Veterinary Medicine (EL54 BIO42), Aristotle University of Thessaloniki, which is registered by the official state veterinary authorities (presidential degree 56/2013, in harmony with the European Directive 2010/63/EEC). The experimental protocols were approved by the Animal Ethics Committee of the Prefecture of Central Macedonia. For the study of the analgesic activity of the tested compounds, pain is provoked with acetic acid. Animals were divided in three five-membered groups, according to our reported method. After treatment with the tested compounds (0.0057 mmol/kg body weight; intraperitoneally) in the first group, the second group was used as a positive control (aspirin; 0.0057 mmol/kg body weight i.p.) and the third group served as the control in which saline was administered (negative control). After 30 min, 0.6% acetic acid (1 mL/kg body weight) was injected i.p. The number of writhes was recorded for each animal every 5 min during a subsequent 30 min period (Table 6).

[4] = molecular target: T1, soybean lipoxygenase (Glycine max, UniProt P08170); assay: Soybean lipoxygenase inhibition study; type: biochemical
T1 construct: purchased Sigma Chemical, Co
T1 sequence (P08170 1-839): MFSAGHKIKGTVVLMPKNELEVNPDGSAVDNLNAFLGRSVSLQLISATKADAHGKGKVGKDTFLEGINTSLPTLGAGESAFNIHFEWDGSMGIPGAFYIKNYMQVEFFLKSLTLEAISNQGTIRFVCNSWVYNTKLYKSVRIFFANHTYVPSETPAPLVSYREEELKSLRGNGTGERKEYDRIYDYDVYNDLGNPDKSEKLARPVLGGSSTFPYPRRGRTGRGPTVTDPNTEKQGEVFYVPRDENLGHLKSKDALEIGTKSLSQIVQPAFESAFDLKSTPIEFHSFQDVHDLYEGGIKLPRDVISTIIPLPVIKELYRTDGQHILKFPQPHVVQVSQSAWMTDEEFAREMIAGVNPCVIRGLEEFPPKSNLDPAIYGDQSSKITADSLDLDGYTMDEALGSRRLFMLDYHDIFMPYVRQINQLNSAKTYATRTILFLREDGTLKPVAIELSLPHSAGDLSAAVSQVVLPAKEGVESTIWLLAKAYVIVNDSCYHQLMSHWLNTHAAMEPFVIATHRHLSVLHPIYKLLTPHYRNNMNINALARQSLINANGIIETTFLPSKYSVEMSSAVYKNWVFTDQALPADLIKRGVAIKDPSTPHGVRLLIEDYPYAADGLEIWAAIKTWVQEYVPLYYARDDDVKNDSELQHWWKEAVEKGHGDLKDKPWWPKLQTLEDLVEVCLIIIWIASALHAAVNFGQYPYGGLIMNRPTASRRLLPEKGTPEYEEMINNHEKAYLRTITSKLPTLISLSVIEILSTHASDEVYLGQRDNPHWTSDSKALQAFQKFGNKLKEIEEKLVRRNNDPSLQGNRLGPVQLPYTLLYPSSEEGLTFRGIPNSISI

Molecule	ABTS^+ % 100 µM (decolorization activity) [1]	CPE % (reduction in the rat paw edema induced by carrageenin) [2]	anti-inflammatory activity in carrageenin-induced rat paw edema (in words) [2]	Writhing Inhibition (%) [3]	inhibition at 100 µM ([4]; compound 100 µM, linoleic acid sodium salt 50 µM, read-out: LOX % Inhibition 100 µM, LLA 50 µM) [%]	type of LOX inhibition ([4]; varying sodium linoleate concentration, enzyme and compound kept stable)
1-(5-(4-((4-bromobenzyl)oxy)phenyl)-3-(thiophen-2-yl)-1H-pyrazol-1-yl)ethan-1-one [Compound 2c]	no	38.0 * %	medium activity	–	–	–
5-(4-((4-bromobenzyl)oxy)phenyl)-3-(4-chlorophenyl)-4,5-dihydro-1H-pyrazole [Compound 2e]	30%	56.0 ** %	highest anti-inflammatory activity	66.1 * %	–	–
c1ccc(C2=NNC(c3cccc4ccccc34)C2)cc1 (stereo not shown) [Compound 2a, 5-(naphthalen-1-yl)-3-phenyl-4,5-dihydro-1H-pyrazole]	no	no	inactive	–	–	–
Clc1ccc(C2=NNC(c3ccc4[nH]ccc4c3)C2)cc1 (stereo not shown) [Compound 2b, 5-(3-(4-chlorophenyl)-4,5-dihydro-1H-pyrazol-5-yl)-1H-indole]	no	27.0 * %	medium activity	–	–	–
Brc1ccc(COc2ccc(C3CC(c4ccccc4)=NN3)cc2)cc1 (stereo not shown) [Compound 2d, 5-(4-((4-bromobenzyl)oxy)phenyl)-3-phenyl-4,5-dihydro-1H-pyrazole]	15%	63.0 ** %	highest anti-inflammatory activity	54.2 * %	–	–
CC(=O)n1nc(-c2ccccc2)cc1-c1ccc2[nH]ccc2c1 [Compound 2f, 1-(5-(1H-indol-5-yl)-3-phenyl-1H-pyrazol-1-yl)ethan-1-one]	no	30.0 * %	medium activity	–	–	–
CC(=O)n1nc(-c2ccc(Cl)cc2)cc1-c1cccc2ccccc12 [Compound 2g, 1-(3-(4-chlorophenyl)-5-(naphthalen-1-yl)-1H-pyrazol-1-yl)ethan-1-one]	no	33.0 * %	medium activity	–	89.6	competitive inhibition
CC(=O)n1nc(-c2ccccc2)cc1-c1cccc(Oc2ccccc2)c1 [Compound 2h, 1-(5-(3-phenoxyphenyl)-3-phenyl-1H-pyrazol-1-yl)ethan-1-one]	no	16.0 * %	low activity	–	–	–
